Assay results reported in the NIST ThermoML archive (doi:10.1016/j.fluid.2013.06.048).
Values joined by “and” are separate entries in the source; they are usually repeats but may differ in a detail not shown here. Equal entries are not always repeated. Numbers after ± are expanded uncertainties.

Conditions: Liquid; pulse-heating method

| Structure (SMILES) | Critical pressure | Critical temperature |
| --- | --- | --- |
| OCCCCO [1,4-butanediol] | 5400 ± 160 kPa and 6220 ± 160 kPa and 5520 ± 160 kPa | 728 ± 24 K and 727 ± 24 K and 723.8 ± 24 K |
| OCCCCCO [1,5-pentanediol] | 4000 ± 160 kPa | 731 ± 24 K |
| OCCCCCCO [1,6-hexanediol] | 3400 ± 160 kPa and 4080 ± 160 kPa |  |
| OCCCCCCCCO [1,8-octanediol] | 2700 ± 160 kPa | 752 ± 24 K |
| OCCCCCCCCCO [1,9-nonanediol] | 2400 ± 160 kPa | 760 ± 24 K |
| OCCCCCCCCCCO [1,10-decanediol] | 2200 ± 160 kPa | 770 ± 24 K |
| OCCCCCCCCCCCCO [1,12-dihydroxydodecane] | 1930 ± 160 kPa | 798 ± 24 K |
| OCCCO [propan-1,3-diol] | 6380 ± 160 kPa and 6300 ± 200 kPa and 6550 ± 160 kPa | 721 ± 24 K and 722 ± 24 K and 718.2 ± 24 K |
